Measurements published in US5258406A, “Sulfonimidamides” (priority 1992, dated 1993).
Read-outs that look alike come from different tables or passages of the source.

Legend:
Format in all cases: in vivo
[1] = tested on: HC1
Procedure: (§1) The compounds were tested in C3H mice bearing a 6C3HED lymphosarcoma, also known as the Gardner lymphosarcoma (GLS), and in a variety of human tumor xenografts in CD1 nu/nu mice, including CX-1, LX-1, HXGC3, and VRC5. The 6C3HED lymphosarcoma was obtained from the Division of Cancer Treatment, National […] Institute, Tumor Bank, maintained at E. G. and G. Mason Research (Worcester, Mass.). The CX-1 human colon carcinoma and the LX-1 human lung carcinoma xenografts were obtained from the National Cancer Institute. The HXGC3 and VRC5 human colon xenografts were obtained from Dr. P. J. Houghton, St. Jude Children's Hospital in Memphis (see Br. J. Cancer, 37, 213 (1978)). First passage tumor was stored in liquid nitrogen using standard techniques. The transplanted tumor was reestablished from the Tumor Bank every six months or as needed. The tumor was maintained by serial passage twice weekly in C3H mice.
(§2) In the procedure the tumor was removed from passage animals and minced into 1- to 3-mm square fragments using sterile techniques. Tumor pieces were checked for sterility using both Antibiotic Medium 1 and Brain Heart Infusion (Difco, Detroit, Mich.). Recipient mice were shaved and tumor pieces were implanted subcutaneously in the auxiliary region by trocar. Drug therapy on the appropriate schedule was initiated on the day after tumor implant for 6C3HED and after a seven (7) day delay for xenografts (or other delay as noted in Table 2). The compound being tested was mixed with 2.5% Emulphor EL620 from GAF Corporation (1:40 dilution in saline). Food and water were provided ad libitium. The drug was administered orally in 0.5 ml of 2.5% Emulphor (unless otherwise indicated). The tumor was measured the day after treatment ended with two dimensional measurements (width and length) of the tumor taken using automated digital calipers interfaced to a microcomputer. Approximate weight for the tumor was calculated using the following formula [Worzalla, J. F., et al., Invest. New Drugs, 8, 241 (1990], (tumor weight in mg)=(width in mm)^2 ×(length in mm)/2.
(§3) At least one control group of an equal number of mice was treated with the same volume of 2.5% Emulphor only. The percent inhibition was determined by subtracting the ratio of the mean tumor size of the test group relative to the control group from one and multiplying the result times 100.
(§4) The results of several experiments in mice bearing a 6C3HED lymphosarcoma (or other tumor where indicated) when the indicated compounds were administered are provided in Table 2. In Table 2, column 1 gives the Example number of the compound used, column 2 lists the dose level in mg/kg, column 3 provides the percent inhibition of tumor growth, column 4 gives the number of mice which died relative to the total number of animals in the group, column 5 gives the method of administration of the compound, and column 6 gives the dosage schedule. The protocol used with other tumors was the same as with the 6C3HED lymphosarcoma.

[2] = tested on: LX1
Procedure: as §1, §2, §3, §4

[3] = tested on: 6C3HED lymphosarcoma; assay: animal or person
[4] = oral, 500 mg/kg, BIDX 14, from day 14 after implant
[5] = oral, 3 mg/kg, BIDX 14, from day 7 after implant

Cc1ccc(S(=N)(=O)NC(=O)Nc2ccc(Cl)cc2)cc1 (centres unmarked) [Example 2, N-[[(4-chlorophenyl)amino]carbonyl]-4-methylbenzenesulfonimidamide]
Tox/Tot (mice which died / total) ([1]; oral, 250 mg/kg, BIDX 14, from day 14 after implant): 2/9
% inhibition of tumor growth [1, 4]: TOX
Tox/Tot (mice which died / total) [1, 4]: 9/9
% inhibition of tumor growth ([1]; po, 250 mg/kg, 336 h): 68%
% inhibition of tumor growth [2, 5]: 24%
Tox/Tot (mice which died / total) [2, 5]: 0/10
Tox/Tot (mice which died / total) ([2]; oral, 10 mg/kg, BIDX 14, from day 7 after implant): 0/10
Tox/Tot (mice which died / total) ([2]; oral, 30 mg/kg, BIDX 14, from day 7 after implant): 0/10
Tox/Tot (mice which died / total) ([2]; oral, 100 mg/kg, BIDX 14, from day 7 after implant): 0/10
Tox/Tot (mice which died / total) ([2]; oral, 300 mg/kg, BIDX 14, from day 7 after implant): 5/10
% inhibition of tumor growth ([2]; po, 10 mg/kg, 168 h): 18%
% inhibition of tumor growth ([2]; po, 30 mg/kg, 168 h): 28%
% inhibition of tumor growth ([2]; po, 100 mg/kg, 168 h): 51%
% inhibition of tumor growth ([2]; po, 300 mg/kg, 168 h): 66%
Tox/Tot (mice which died / total) ([3]; IP, 150 mg/kg, DX 8): 1/10
Tox/Tot (mice which died / total) ([3]; IP, 300 mg/kg, DX 8): 6/10
Tox/Tot (mice which died / total) ([3]; IV, 12.5 mg/kg, DX 8): 0/10
Tox/Tot (mice which died / total) ([3]; IV, 25 mg/kg, DX 8): 1/10
inhibition in vivo at 150 mg/kg ([3]; Mus musculus, 6C3HED, ip, read-out: % inhibition of tumor growth, IP, 150 mg/kg, DX 8): 92%
inhibition in vivo at 300 mg/kg ([3]; Mus musculus, 6C3HED, ip, read-out: % inhibition of tumor growth, IP, 300 mg/kg, DX 8): 98%
inhibition in vivo at 12.5 mg/kg ([3]; Mus musculus, 6C3HED, iv, read-out: % inhibition of tumor growth, IV, 12.5 mg/kg, DX 8): 36%
inhibition in vivo at 25 mg/kg ([3]; Mus musculus, 6C3HED, iv, read-out: % inhibition of tumor growth, IV, 25 mg/kg, DX 8): 52%
inhibition in vivo at 50 mg/kg ([3]; Mus musculus, 6C3HED, po, read-out: % inhibition of tumor growth, oral, 50 mg/kg, BIDX 8): 95%
inhibition in vivo at 75 mg/kg ([3]; Mus musculus, 6C3HED, po, read-out: % inhibition of tumor growth, oral, 75 mg/kg, DX 8): 76%
inhibition in vivo at 100 mg/kg ([3]; Mus musculus, 6C3HED, po, read-out: % inhibition of tumor growth, oral, 100 mg/kg, BIDX 8): 96%
inhibition in vivo at 150 mg/kg ([3]; Mus musculus, 6C3HED, po, read-out: % inhibition of tumor growth, oral, 150 mg/kg, DX 8): 74%
inhibition in vivo at 200 mg/kg ([3]; Mus musculus, 6C3HED, po, read-out: % inhibition of tumor growth, oral, 200 mg/kg, BIDX 8): 98%
inhibition in vivo at 300 mg/kg ([3]; Mus musculus, 6C3HED, po, read-out: % inhibition of tumor growth, oral, 300 mg/kg, DX 8): 82%
inhibition in vivo at 400 mg/kg ([3]; Mus musculus, 6C3HED, po, read-out: % inhibition of tumor growth, oral, 400 mg/kg, BIDX 8): 99%
inhibition in vivo at 600 mg/kg ([3]; Mus musculus, 6C3HED, po, read-out: % inhibition of tumor growth, oral, 600 mg/kg, DX 8): 99%
inhibition in vivo at 800 mg/kg ([3]; Mus musculus, 6C3HED, po, read-out: % inhibition of tumor growth, oral, 800 mg/kg, BIDX 8): 99%
inhibition in vivo at 1200 mg/kg ([3]; Mus musculus, 6C3HED, po, read-out: % inhibition of tumor growth, oral, 1200 mg/kg, DX 8): 100%
Tox/Tot (mice which died / total) ([3]; oral, 50 mg/kg, BIDX 8): 0/10
Tox/Tot (mice which died / total) ([3]; oral, 75 mg/kg, DX 8): 0/10
Tox/Tot (mice which died / total) ([3]; oral, 100 mg/kg, BIDX 8): 0/10
% inhibition of tumor growth ([3]; oral, 150 mg/kg, DX 8): 93%
Tox/Tot (mice which died / total) ([3]; oral, 150 mg/kg, DX 8): 0/10
Tox/Tot (mice which died / total) ([3]; oral, 200 mg/kg, BIDX 8): 0/10
% inhibition of tumor growth ([3]; oral, 300 mg/kg, DX 8): 95%
Tox/Tot (mice which died / total) ([3]; oral, 300 mg/kg, DX 8): 0/10
Tox/Tot (mice which died / total) ([3]; oral, 400 mg/kg, BIDX 8): 0/10
Tox/Tot (mice which died / total) ([3]; oral, 600 mg/kg, DX 8): 0/10
Tox/Tot (mice which died / total) ([3]; oral, 800 mg/kg, BIDX 8): 1/10
Tox/Tot (mice which died / total) ([3]; oral, 1200 mg/kg, DX 8): 0/10
